Key:
X. perforans GEV-485 = assay: In vitro MIC and MBC determination in nutrient broth / on NA plates; assay type: cell-based; conditions: three trials
Protocol: X. perforans strain GEV-485, a copper-resistant strain, was used in this study to evaluate the antibacterial activity of Hx. Working cultures of GEV-485 were retrieved from −80° C. storage vials containing bacterial suspensions in 30% glycerol (v/v). Bacterial cells were taken from the storage, streaked on nutrient agar (NA; Difco™ Sparks, MD) plates and incubated for 48 h at 28° C. and single colonies were picked and streaked on NA plates to ensure bacterial purity for further cultures. NA amended with copper (II) sulfate pentahydrate (CuSO4·5H2O) (Fisher Scientific-Hampton, NH) at 20 ppm, was used as copper tolerance selective agent. To prepare the bacterial inoculum, a single bacterial colony was streaked on NA and incubated for 24 h at 28° C. From those plates, loops of bacterial cells were collected and resuspended in SDW amended with 0.01 M MgSO4. The bacterial concentration was adjusted to ˜5.0×10^8 colony-forming units (CFU)/mL based on an optical density (OD) of 0.3 at 600 nm. The in vitro studies were conducted to determine the minimum inhibitory concentration (MIC), minimum bactericidal concentration (MBC), and the antibacterial activity at different time points.
To determine MIC of Hx against X. perforans GEV-485, individual 96-well plates containing 100 μL of nutrient broth (NB) with varied copper and Hx concentrations were inoculated with 100 μL of the GEV-485 suspension at the concentration of 1.0×10^8 CFU/mL. The final chemical concentrations on the wells were 16, 32, 64, 128, 256, 512, 1024, 2048, 4096 and 8192 mg/L. Three wells with 100 µL of NB and 100 μL of the bacterial suspension were the controls. Solutions in all wells were thoroughly mixed by pipetting. The plate was, then, covered with a lid and incubated under stationary conditions at 28° C. for 24 h. The value of MIC for Hx and copper was determined as the minimum concentration (mg/L), at which the bacterial growth was inhibited (the solution was clear), among all tested concentrations of each chemical. After MIC was determined, an aliquot of 20 μL of the solution from the wells that gave a clear solution was plated on NA. […] The MBC was determined as the minimum concentration, at which >99.9% of the initial bacterial populations were killed and no visible growth of the bacterium was observed on the NA plates among all tested concentrations of antimicrobial agents. The experiment was repeated two more times, with three replications for each treatment.

[1] = system: X. perforans (a copper-resistant strain QL); assay: Greenhouse experiment, bacterial spot of tomato (cv. FL 47), compounds sprayed approx. 2 h before inoculation; assay type: in vivo; conditions: for BS1 average disease severity of bacterial spot on two mostly infected leaves / WHOLE1 disease severity over the whole plant: 10 d after inoculation; for BS2 average disease severity of bacterial spot on two mostly infected leaves / WHOLE2 disease severity over the whole plant: 12 d after inoculation; for BS3 average disease severity of bacterial spot on two mostly infected leaves / WHOLE3 disease severity over the whole plant: 14 d after inoculation; for AUDPC_BS: two mostly infected leaves, 10, 12, 14 days after inoculation; for AUDPC_WHOLE: whole plant, 10, 12, 14 days after inoculation
Protocol: Tomato (cv. FL 47) was seeded in the greenhouse (the highest temperature was set at 82° F.) and the seedlings with two fully expanded leaves (about 3 weeks after seeding) were transplanted to soilless mix in 6-inch pots. One week after transplanting, treatments with the compounds at the test concentrations were sprayed onto plants until runoff approx. 2 h before inoculation with X. perforans. Untreated plants were used as the control (CK). There were five plants in each treatment and one plant served as one replicate. All plants were inoculated by spraying a bacterial suspension of X. perforans (a copper-resistant strain QL) at 1×10^8 CFU/ml until runoff. Inoculated plants were incubated in a moist chamber overnight (approx. 18 h) to ensure and promote infection by X. perforans. Then the inoculated plants were taken out and placed randomly on a bench inside the greenhouse for disease development. Plants were sprayed with mist periodically to stimulate disease development. When lesions on the leaves were apparent, the percentage of leaf area covered by the lesions, either for the two mostly infected leaves or the whole plant, was rated and recorded for each treatment. Disease rating was conducted at least two times. The area under the disease progress curve (AUDPC) was calculated for each treatment to reflect the disease development over a period if disease rating was carried out three times or more.

Xanthomonas perforans = assay: Field trials on piperidine and pyrrolidine, bacterial spot of tomato, foliar spray; assay type: in vivo; conditions: for AUDPC / BS last rating of bacterial spot severity / YIELD: foliar spray at the concentration given with each treatment; for increase of marketable tomato fruit yield compared to the untreated control (CK) / bacterial spot disease severity and AUDPC compared to the untreated control (CK): pyrrolidine at 128 mg/ml; for bacterial spot disease severity and AUDPC compared to the untreated control (CK): foliar sprays, both independent trials, 2021-2022
Description: Tomato seedlings were transplanted in fall for the first trial (trial 1) and spring for the second trial (trial 2). Treatments were started about two weeks after transplanting following weekly applications for a total of eight weeks. Tomato plants were inoculated with the pathogen Xanthomonas perforans (1-5×10^6 cfu/ml) the following day in the afternoon after the third treatment. Disease severity was rated weekly when bacterial spot symptoms were observed, and area under the disease progress curve (AUDPC) was calculated. Tomato fruit were harvested two to three times for each trial and graded according to the USDA standard. Total fruit yield in each treatment and the untreated control (CK) was subjected to statistical analysis using SAS (version 9.2, SAS Institute Inc., Cary, NC, USA). Disease severity of last rating and AUDPC from each trial were analyzed and presented.
All treatments were applied through a foliar spray at specified concentrations. Piperidine and pyrrolidine were evaluated in two independent trials. Tomato cultivar was ‘Red bounty’ in trial 1, and ‘Varsity’ in trial 2.

[2] = first value named of two independent trials, piperidine at 64 mg/ml
[3] = second value named of two independent trials, piperidine at 64 mg/ml

Molecule	BS1 average disease severity of bacterial spot on two mostly infected leaves ([1]; 64 mg/L = 64 ppm)	WHOLE1 disease severity over the whole plant ([1]; 64 mg/L = 64 ppm)	BS2 average disease severity of bacterial spot on two mostly infected leaves ([1]; 64 mg/L = 64 ppm)	WHOLE2 disease severity over the whole plant ([1]; 64 mg/L = 64 ppm)	BS3 average disease severity of bacterial spot on two mostly infected leaves ([1]; 64 mg/L = 64 ppm)	WHOLE3 disease severity over the whole plant ([1]; 64 mg/L = 64 ppm)	AUDPC_BS ([1]; 64 mg/L = 64 ppm)	AUDPC_WHOLE ([1]; 64 mg/L = 64 ppm)	AUDPC (Xanthomonas perforans; Trial 1, cv. Red bounty)	BS last rating of bacterial spot severity (Xanthomonas perforans; Trial 1, cv. Red bounty) [b %]	YIELD (Xanthomonas perforans; Trial 1, cv. Red bounty) [a kg/plant]	AUDPC (Xanthomonas perforans; Trial 2, cv. Varsity) [b]	BS last rating of bacterial spot severity (Xanthomonas perforans; Trial 2, cv. Varsity) [b %]	YIELD (Xanthomonas perforans; Trial 2, cv. Varsity) [a kg/plant]	increase of marketable tomato fruit yield compared to the untreated control (CK) (Xanthomonas perforans; [2]) [%]	bacterial spot disease severity and AUDPC compared to the untreated control (CK) (Xanthomonas perforans; piperidine at 64 mg/ml)	increase of marketable tomato fruit yield compared to the untreated control (CK) (Xanthomonas perforans; [3]) [%]	further results
O=S(=O)([O-])[O-].[Cu+2] [Copper (CuSO4), CuSO4, reference compound]	–	–	–	–	–	–	–	–	–	–	–	–	–	–	–	–	–	MIC (X. perforans GEV-485; 28° C. for 24 h, copper-resistant strain): 1024 µg/mL; MBC (X. perforans GEV-485; >99.9% of initial bacterial populations killed, no visible growth on NA): 2048 µg/mL
C1CCNCC1 [Piperidine, piperidine]	30.0 a	10.0 ab	36.0 a	28.0 a	54.0 a	32.0 a	546.0 a	343.0 a	495.9 bc	34.6	3.88	394.9	23.8	4.38	15.5	significantly (P<0.05) reduced bacterial spot disease severity at the last rating and the overall disease progress	17.6	BS1 average disease severity of bacterial spot on two mostly infected leaves ([1]; 32 mg/L = 32 ppm): 24.5 a; WHOLE1 disease severity over the whole plant ([1]; 32 mg/L = 32 ppm): 14.2 a; BS2 average disease severity of bacterial spot on two mostly infected leaves ([1]; 32 mg/L = 32 ppm): 33.0 a; WHOLE2 disease severity over the whole plant ([1]; 32 mg/L = 32 ppm): 26.0 ab; BS3 average disease severity of bacterial spot on two mostly infected leaves ([1]; 32 mg/L = 32 ppm): 35.0 b; WHOLE3 disease severity over the whole plant ([1]; 32 mg/L = 32 ppm): 26.0 ab; bacterial spot disease compared to CK ([1]; at 32 and 64 mg/L alone): failed to reduce the disease; AUDPC_BS ([1]; 32 mg/L = 32 ppm): 439.3 b; AUDPC_WHOLE ([1]; 32 mg/L = 32 ppm): 322.7 ab; effect on disease reduction compared to ManKocide at the label rate of 2.1 mg/ml (Xanthomonas perforans; piperidine at 64 mg/ml, foliar spray): even better than ManKocide®
pyrrolidine	14.0 bc	5.1 bc	15.2 bc	7.5 cde	17.5 c	5.3 c	219.6 c	88.7 days	466.1 c	31.7	3.95	401.8	23.1	3.99	15.9	significantly (P<0.05) reduced bacterial spot disease severity at the last rating and the overall disease progress	5.6	BS1 average disease severity of bacterial spot on two mostly infected leaves ([1]; 128 mg/L = 128 ppm): 7.5 c; WHOLE1 disease severity over the whole plant ([1]; 128 mg/L = 128 ppm): 1.5 c; BS2 average disease severity of bacterial spot on two mostly infected leaves ([1]; 128 mg/L = 128 ppm): 9.0 c; WHOLE2 disease severity over the whole plant ([1]; 128 mg/L = 128 ppm): 1.8 de; BS3 average disease severity of bacterial spot on two mostly infected leaves ([1]; 128 mg/L = 128 ppm): 11.0 c; WHOLE3 disease severity over the whole plant ([1]; 128 mg/L = 128 ppm): 3.8 c; bacterial spot disease compared to the untreated control (CK) ([1]; at 64 and 128 mg/L each): significantly (P<0.05) reduced bacterial spot disease; AUDPC_BS ([1]; 128 mg/L = 128 ppm): 127.8 cd; AUDPC_WHOLE ([1]; 128 mg/L = 128 ppm): 31.2 days
